Data published in publication PMC6533151 (Neuron, 2019).
“And” between values parts separate entries of the source, which are not always exact repeats. Identical values can stand only once. Counter-ions that a name gives are not always drawn. Like-named read-outs stand apart in the source and are kept apart here.

Experiments:
[1] = system: GRABNE1h; test: GRABNE1h fluorescence in acute mouse hippocampal slices; format: cell-based, human
[2] = system: GRABNE sensors; test: Ligand specificity and dynamic range of GRABNE sensors; format: cell-based, human; details: for fluorescence response of the sensors to the compound: HEK293T cells, Fig. 2G
[3] = target: T1, GRABNE1m (Homo sapiens, UniProt P08913); format: cell-based; details: cultured neurons
[4] = system: GRABNE1m; details: cultured hippocampal slices; puff application in ACSF
[5] = system: looming-evoked NE release (GRABNE1m fluorescence); test: Looming-evoked GRABNE1m fluorescence in optic tectum of zebrafish; format: in vivo; details: for effect on looming-induced increase in GRABNE1m fluorescence: bath application 50 μM
[6] = system: optogenetically evoked NE release in the LC (GRABNE1m fluorescence); format: in vivo, mouse; details: i.p.; desipramine 10 mg/kg, yohimbine 2 mg/kg
[7] = system: release of endogenous NE in the LC (GRABNE1m fluorescence); format: cell-based, mouse
[8] = system: GRABNE1m; test: Bath application to Tg; format: in vivo, zebrafish
[9] = system: NE dynamics in the lateral hypothalamus (GRABNE1m fluorescence); format: in vivo, mouse; details: i.p.; atomoxetine 3 mg/kg, yohimbine 2 mg/kg, GBR 12909 10 mg/kg, sulpiride 50 mg/kg
[10] = system: GRABNE1m; format: cell-based, human
[11] = system: GRABNE1h; test: Fluorescence response of GRABNE1h expressed in HEK293T cells; format: cell-based, human; details: 10 μM yohimbine
[12] = system: GRABNEmut; format: cell-based, human; details: cultured hippocampal slices
[13] = system: GRABNEmut; test: Bath application to zebrafish expressing GRABNEmut; format: in vivo; details: 50 μM NE
[14] = target: GRABNE1h (Homo sapiens, UniProt P08913, T388K); test: Fluorescence response of GRABNE1h expressed in HEK293T cells; format: cell-based
[15] = system: GRABNEmut; test: Fluorescence response of GRABNEmut expressed in HEK293T cells; format: cell-based, human; details: 100 μM NE
[16] = target: T1, GRABNE1m; format: cell-based
[17] = system: GRABNE1h; format: cell-based, human; details: cultured hippocampal slices; puff application in ACSF
[18] = system: GRABDA1m; details: 50 μM DA

## CNC[C@H](O)c1ccc(O)c(O)c1 [Epi, Epinephrine hydrochloride]
[1]
  fluorescence response to exogenous application: evoked a fluorescence increase
[2]
  fluorescence response of the sensors to the compound: responded
[3]; compounds at 10 μM each
  fluorescence response to the compound: responded specifically
[4]
  fluorescence response to exogenous application: generated fluorescence increases

## CNCCCN1c2ccccc2CCc2ccccc21 [desipramine, Desipramine hydrochloride]
[5]; desipramine 50 μM
  effect on decay of looming-induced fluorescence signal: slowed the decay of the fluorescence signal
[6]
  effect on basal GRABNE1m fluorescence: slow progressive increase
  effect on light-evoked GRABNE1m responses: increase in the magnitude and decay time

## COC(=O)[C@@H]1[C@H]2C[C@H]3c4[nH]c5ccccc5c4CCN3C[C@@H]2CC[C@@H]1O [yohimbine, Yohimbine hydrochloride]
[5]
  effect on looming-induced increase in GRABNE1m fluorescence: blocked
[7]; 50 μM NE, 20 μM yohimbine, Fig. 4H
  block of GRABNE1m response to applied NE: abolished
[7]; 20 pulses at 20 Hz, 4-AP 100 μM, Cd2+ 100 μM, desipramine 10 μM, yohimbine 20 μM
  effect on stimulation-induced fluorescence response: blocked the response
[1]
  block of agonist-evoked fluorescence increase: blocked
[1]; stimuli at 20 Hz for 1 s
  block of electrically evoked fluorescence increase: blocked
[8]; 50 μM antagonist after 50 μM NE
  block of NE-induced fluorescence increase: blocked completely
[9]
  effect on GRABNE1m peak fluorescence during tail suspension: decreased
  effect on time to return to baseline after tail suspension: significantly accelerated the return to baseline
[2]; GRABNE-expressing HEK293T cells
  block of NE-induced fluorescence increase: blocked
[6]
  effect on basal GRABNE1m fluorescence: abolished
  effect on light-evoked GRABNE1m responses: abolished
[10]
  block of NE-induced fluorescence increase: blocked completely
[11]
  block of uncaging-induced fluorescence increase: blocked

## NC[C@H](O)c1ccc(O)c(O)c1 [NE, Norepinephrine]
[1]
  fluorescence response to exogenous application: evoked a fluorescence increase
[8]; 50 μM, tectal neuropil, larvae
  fluorescence response to bath application: elicited a robust increase in fluorescence intensity
[2]
  fluorescence response of the sensors to the compound: responded
[2]; saturating NE
  peak ΔF/F0 response / dynamic range of the GRABNE sensor family: 230% and ~ 200%
[12]
  fluorescence response to exogenous application: no detectable effect
[4]
  fluorescence response to exogenous application: evoked a robust increase in fluorescence
[13]
  fluorescence response to NE: did not respond
[14]; 100 μM NE
  maximum ΔF/F0: ~ 130%
[14]; 405-nm uncaging, single exponential fit
  mean on time constant after photolysis of NPEC-caged NE: 137 ms
[14]; NE followed by 200 μM yohimbine, line scanning
  average τoff: 1890 ms
[14]; T6.34K point mutation
  increase in sensitivity to NE compared with GRABNE1m: 10 fold
[15]
  fluorescence response to NE: does not respond
[16]; HEK293T cells, NE followed by 200 μM yohimbine, line scanning
  average τoff: 680 ms
[16]; saturating concentration of NE for 2 h
  internalization of GRABNE1m: no internalization
[17]
  fluorescence response to exogenous application: evoked a robust increase in fluorescence

## pertussis toxin
[3]; inhibiting G protein activation
  effect on NE-induced fluorescence change: did not affect
[14]; blocking G protein activation
  effect on NE-induced fluorescence response: had no effect
[16]; HEK293T cells, blocking G protein activation
  effect on NE-induced fluorescence response: had no effect

## CCc1cc(Cl)c(OC)c(C(=O)NC[C@@H]2CCCN2CC)c1O [eticlopiride, Eticlopride hydrochloride]
[6]
  effect on light-evoked GRABNE1m responses: had no effect

## Fc1ccc(C(OCCN2CCN(CCCc3ccccc3)CC2)c2ccc(F)cc2)cc1 [GBR 12909]
[9]
  effect on GRABNE1m peak fluorescence during tail suspension: had no effect
  effect on time to return to baseline after tail suspension: had no effect
[6]
  effect on light-evoked GRABNE1m responses: had no effect

## NCCc1ccc(O)c(O)c1 [DA, Dopamine hydrochloride]
[18]
  fluorescence response to application: responded robustly

## CCN1CCCC1CNC(=O)c1cc(S(N)(=O)=O)ccc1OC (stereo not drawn) [sulpiride, Sulpiride]
[9]
  effect on GRABNE1m peak fluorescence during tail suspension: had no effect
  effect on time to return to baseline after tail suspension: had no effect

## Cc1ccc(OCC(O)C(C)NC(C)C)c2c1CCC2.Cl (stereo not drawn) [ICI 118,551, ICI 118,551 hydrochloride]
[5]
  effect on looming-induced increase in GRABNE1m fluorescence: unaffected

## CNCC[C@@H](Oc1ccccc1C)c1ccccc1 [atomoxetine, Atomoxetine hydrochloride]
[9]
  effect on GRABNE1m peak fluorescence during tail suspension: had no effect
  effect on time to return to baseline after tail suspension: significantly slowed the return of signal to its baseline

## Brc1c(NC2=NCCN2)ccc2nccnc12 [brimonidine, UK 14,304 tartrate]
[1]
  fluorescence response to exogenous application: evoked a fluorescence increase
[2]
  fluorescence response of the sensors to the compound: responded
[4]
  fluorescence response to exogenous application: generated fluorescence increases
